Reference: ChEMBL document CHEMBL3102731, “Structure-activity relationship studies and biological characterization of human NAD(+)-dependent 15-hydroxyprostaglandin dehydrogenase inhibitors” (Bioorg Med Chem Lett, 2014)
pIC50: −log10 of the molar value. Blank lines part the entries; values can stand above or below the molecule they belong to.

What was measured:
[1] = target: T1, 15-hydroxyprostaglandin dehydrogenase [NAD(+)] (Homo sapiens, UniProt P15428); assay: Inhibition of human HPGD using PGE2 as substrate after 15 mins by fluorescence assay
T1 sequence (P15428 whole entry): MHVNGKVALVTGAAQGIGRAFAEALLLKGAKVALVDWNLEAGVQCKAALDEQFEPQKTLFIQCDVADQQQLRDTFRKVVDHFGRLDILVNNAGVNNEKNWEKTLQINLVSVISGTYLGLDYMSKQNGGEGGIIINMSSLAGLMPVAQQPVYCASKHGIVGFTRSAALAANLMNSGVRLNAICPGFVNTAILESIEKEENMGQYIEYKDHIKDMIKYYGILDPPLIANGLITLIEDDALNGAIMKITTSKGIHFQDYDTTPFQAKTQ

LNCaP [2] = assay: Induction of PGE2 production in human LNCAP cells at 41.9 nM to 100 uM after 16 hrs by HTRF assay relative to control; format: functional
LNCaP [3] = assay: Induction of PGE2 production in human LNCAP cells assessed as half-maximal activation concentration after 16 hrs by HTRF assay; format: functional, cell-based
A549 [4] = assay: Induction of PGE2 production in human A549 cells at 775 pM to 45.8 uM after 4 to 20 hrs by HTRF assay relative to control; format: functional
A549 [5] = assay: Induction of PGE2 production in human A549 cells assessed as concentration required for half-maximal activation after 4 to 20 hrs by HTRF assay; format: functional, cell-based
[6] = target: T2, Aldehyde dehydrogenase 1A1 (Homo sapiens, UniProt P00352); assay: Inhibition of ALDH1A1 (unknown origin) using NAD+/propionaldehyde as substrate after 15 mins by UV-fluorescence assay
T2 sequence (P00352 whole entry): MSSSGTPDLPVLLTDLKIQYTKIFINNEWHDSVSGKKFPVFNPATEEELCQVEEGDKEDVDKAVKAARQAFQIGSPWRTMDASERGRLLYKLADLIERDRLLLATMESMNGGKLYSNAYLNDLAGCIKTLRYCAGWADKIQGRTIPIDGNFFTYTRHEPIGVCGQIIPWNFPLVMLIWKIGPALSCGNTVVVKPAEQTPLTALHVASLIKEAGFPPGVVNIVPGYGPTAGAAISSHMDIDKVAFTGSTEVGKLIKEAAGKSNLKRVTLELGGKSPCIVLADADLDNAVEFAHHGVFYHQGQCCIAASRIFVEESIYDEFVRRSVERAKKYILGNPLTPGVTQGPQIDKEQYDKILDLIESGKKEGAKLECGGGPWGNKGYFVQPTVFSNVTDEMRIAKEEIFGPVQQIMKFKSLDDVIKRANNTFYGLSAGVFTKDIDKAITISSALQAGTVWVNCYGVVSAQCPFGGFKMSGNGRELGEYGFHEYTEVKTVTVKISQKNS

[7] = target: T3, Peroxisomal multifunctional enzyme type 2 (Homo sapiens, UniProt P51659); assay: Inhibition of HSD17beta4 (unknown origin) using NAD+/estradiol as substrate at 324 pM to 57.2 uM after 15 mins by UV-fluorescence assay
T3 sequence (P51659 whole entry): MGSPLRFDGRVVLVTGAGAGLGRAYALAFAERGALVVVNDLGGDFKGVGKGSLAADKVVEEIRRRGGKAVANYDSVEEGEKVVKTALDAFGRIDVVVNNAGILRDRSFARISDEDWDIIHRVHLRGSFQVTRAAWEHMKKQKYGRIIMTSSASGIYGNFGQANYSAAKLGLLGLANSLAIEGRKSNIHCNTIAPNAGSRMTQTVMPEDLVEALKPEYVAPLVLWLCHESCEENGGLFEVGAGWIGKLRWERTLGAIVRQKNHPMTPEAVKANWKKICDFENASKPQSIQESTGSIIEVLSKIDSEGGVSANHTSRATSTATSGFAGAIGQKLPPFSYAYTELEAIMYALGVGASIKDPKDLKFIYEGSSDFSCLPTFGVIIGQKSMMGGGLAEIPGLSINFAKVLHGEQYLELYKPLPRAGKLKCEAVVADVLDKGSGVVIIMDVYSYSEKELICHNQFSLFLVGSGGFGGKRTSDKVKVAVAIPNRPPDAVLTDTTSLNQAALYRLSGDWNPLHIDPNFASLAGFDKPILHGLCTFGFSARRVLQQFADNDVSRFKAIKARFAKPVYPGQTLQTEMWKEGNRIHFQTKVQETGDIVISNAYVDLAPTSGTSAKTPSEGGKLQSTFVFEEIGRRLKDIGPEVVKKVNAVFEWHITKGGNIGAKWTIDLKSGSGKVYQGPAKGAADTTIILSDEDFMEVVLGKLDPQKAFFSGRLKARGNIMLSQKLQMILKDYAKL

[8] = target: L-lactate dehydrogenase B chain (Homo sapiens, UniProt P07195); assay: Inhibition of LDHB (unknown origin) using sodium pyruvate as substrate at 0.46 to 57.5 uM after 15 mins by fluorescence assay
Chain of L-lactate dehydrogenase B chain (P07195 whole entry): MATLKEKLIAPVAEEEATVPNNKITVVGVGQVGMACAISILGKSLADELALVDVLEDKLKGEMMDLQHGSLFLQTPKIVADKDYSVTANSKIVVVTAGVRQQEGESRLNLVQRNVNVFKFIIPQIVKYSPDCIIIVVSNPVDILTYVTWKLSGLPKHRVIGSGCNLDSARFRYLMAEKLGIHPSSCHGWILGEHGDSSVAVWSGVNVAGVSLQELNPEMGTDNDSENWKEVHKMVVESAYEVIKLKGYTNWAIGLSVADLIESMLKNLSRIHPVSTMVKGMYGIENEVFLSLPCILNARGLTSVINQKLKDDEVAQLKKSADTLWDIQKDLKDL

[9] = target: L-lactate dehydrogenase A chain (Homo sapiens, UniProt P00338); assay: Inhibition of LDHA (unknown origin) using sodium pyruvate as substrate at 0.46 to 57.5 uM after 15 mins by fluorescence assay
[10] = target: Glyceraldehyde-3-phosphate dehydrogenase (Oryctolagus cuniculus, UniProt P46406); assay: Inhibition of rabbit muscle GAPDH using glyceraldehyde-3-phosphate as substrate at 324 pM to 57.2 uM by fluorescence assay
Chain of Glyceraldehyde-3-phosphate dehydrogenase (P46406 whole entry): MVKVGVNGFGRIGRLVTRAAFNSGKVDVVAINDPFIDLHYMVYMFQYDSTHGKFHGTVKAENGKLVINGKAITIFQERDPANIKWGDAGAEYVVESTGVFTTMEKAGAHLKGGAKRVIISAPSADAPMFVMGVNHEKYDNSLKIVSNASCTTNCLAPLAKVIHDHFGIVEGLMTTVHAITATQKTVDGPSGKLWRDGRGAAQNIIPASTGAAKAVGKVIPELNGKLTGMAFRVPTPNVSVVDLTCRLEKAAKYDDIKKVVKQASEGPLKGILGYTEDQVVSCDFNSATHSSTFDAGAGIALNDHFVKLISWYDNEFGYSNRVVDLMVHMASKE

[11] = Kinetic solubility of the compound in PBS buffer at pH 7.4; format: physicochemical
Liver microsome = assay: Half life in rat liver microsomes in presence of NADPH; format: ADME
[12] = Passive permeability of the compound at pH 7.4 by PAMPA; format: ADME

SMILES: Cc1cccc(-n2cnc3cc(C(=O)N4CCC(C(F)(F)F)CC4)ccc32)c1
pIC50 [1]: 5.82

SMILES: O=C(c1ccc2c(c1)ncn2-c1ccc(C(F)(F)F)cc1)N1CCCCC1
pIC50 [1]: 7.07

SMILES: Cc1cc(-c2nnc3n2CCCCC3)c(C)n1-c1ccc([N+](=O)[O-])cc1
pIC50 [1]: 6.97

SMILES: c1ccc(-n2ccc(-c3nnc4n3CCCCC4)n2)cc1
pIC50 [1]: 5.42

SMILES: Cc1cc(-c2nnc3n2CCCCC3)c(C)n1-c1cccc(C(F)(F)F)c1
Activity (LNCaP [2]): 44%
AC50 (LNCaP [3]): 2.22 µM
Activity (A549 [4]): 145%
AC50 (A549 [5]): 2.09 µM
pIC50 [6]: 5.82
IC50 [7]: Not Active
IC50 [8]: Not Active
IC50 [9]: Not Active
IC50 [10]: Not Active
Kinetic_solubility [11]: 33 µM
t1/2 (Liver microsome): 1.9 min
permeability [12]: 1510 ×10⁻⁶ cm/s
pIC50 [1]: 7.32

SMILES: c1ccc(-n2cc(-c3nnc4n3CCCCC4)c3ccccc32)cc1
pIC50 [1]: 6.17

SMILES: Cc1cccc(-n2cnc3cc(C(=O)N4CCOCC4)ccc32)c1
pIC50 [1]: 5.52

SMILES: Cc1cc(-c2nnc3n2CCCCC3)c(C)n1-c1ccc(C(F)(F)F)cc1
pIC50 [1]: 7.17

SMILES: CC(C)(C)c1cccc(-n2cnc3cc(C(=O)N4CCCCC4)ccc32)c1
pIC50 [1]: 6.77

SMILES: CC(C)c1cccc(-n2cnc3cc(C(=O)N4CCCCC4)ccc32)c1
pIC50 [1]: 7.17

SMILES: Cc1cc(-c2nnc3n2CCCCC3)c(C)n1-c1cccc(C#N)c1
Activity (LNCaP [2]): 63%
AC50 (LNCaP [3]): 1.77 µM
Activity (A549 [4]): 350%
AC50 (A549 [5]): 2.64 µM
pIC50 [6]: 5.17
IC50 [7]: Not Active
IC50 [8]: Not Active
IC50 [9]: Not Active
IC50 [10]: Not Active
Kinetic_solubility [11]: > 49 µM
t1/2 (Liver microsome): 8.1 min
permeability [12]: 229 ×10⁻⁶ cm/s
pIC50 [1]: 7.12

SMILES: Cc1cccc(-n2cnc3cc(C(=O)N4CCCC4)ccc32)c1
pIC50 [1]: 6.42

SMILES: Cc1cc(-c2nnc3n2CCCCC3)c(C)n1-c1ccncc1
pIC50 [1]: 6.42

SMILES: CC(C)(C)c1ccc(-n2cnc3cc(C(=O)N4CCCCC4)ccc32)cc1
pIC50 [1]: 7.27

SMILES: Cc1cc(-c2nnc3n2CCCCC3)c(C)n1-c1cccc2ccccc12
pIC50 [1]: 6.97

SMILES: Cc1cc(-c2nnc3n2CCCCC3)c(C)n1-c1ccc(F)cc1
pIC50 [1]: 6.92

The next molecules have a higher pIC50 [1] than those just listed; values first:

pIC50 [1]: 7.66
SMILES: Cc1cccc(-n2cnc3cc(C(=O)N4CCCC(C)C4)ccc32)c1 (configuration not stated)

pIC50 [6]: 5.87
IC50 [7]: Not Active
IC50 [8]: Not Active
IC50 [9]: Not Active
IC50 [10]: Not Active
Kinetic_solubility [11]: > 50 µM
t1/2 (Liver microsome): 23 min
permeability [12]: 624 ×10⁻⁶ cm/s
pIC50 [1]: 7.72
SMILES: COc1ccc(-n2cnc3cc(C(=O)N4CCCCC4)ccc32)cc1
Activity (LNCaP [2]): 69%
AC50 (LNCaP [3]): 0.884 µM
Activity (A549 [4]): 174%
AC50 (A549 [5]): 0.662 µM

pIC50 [6]: 6.22
IC50 [7]: Not Active
IC50 [8]: Not Active
IC50 [9]: Not Active
IC50 [10]: Not Active
Kinetic_solubility [11]: 32 µM
t1/2 (Liver microsome): 1.9 min
permeability [12]: 1650 ×10⁻⁶ cm/s
pIC50 [1]: 7.66
SMILES: Cc1cc(-c2nnc3n2CCCCC3)c(C)n1-c1ccc(Cl)c(Cl)c1
Activity (LNCaP [2]): 105%
AC50 (LNCaP [3]): 0.352 µM
Activity (A549 [4]): 110%
AC50 (A549 [5]): 0.296 µM

pIC50 [1]: 7.66
SMILES: O=C(c1ccc2c(c1)ncn2-c1ccc(Cl)cc1)N1CCCCC1

pIC50 [1]: 7.42
SMILES: Cc1cc(-c2nnc3n2CCCCC3)c(C)n1-c1ccc(Cl)cc1

pIC50 [1]: 7.47
SMILES: CC(C)(C)n1cnc2cc(C(=O)N3CCCCC3)ccc21

pIC50 [1]: 7.66
SMILES: O=C(c1ccc2c(c1)ncn2-c1ccccc1)N1CCCCC1

pIC50 [1]: 7.57
SMILES: COc1ccccc1-n1cnc2cc(C(=O)N3CCCCC3)ccc21
